“And” between values parts separate entries of the source, which are not always exact repeats. Identical values can stand only once.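 Method: 48-hour compound exposure of cells in 96-well plates, five concentrations, linear interpolation of endpoints. GI50: concentration for 50% inhibition of growth. At the TGI there is no net growth.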 Bounds are passed on as bounds.

Common to all, as to assay: NCI-60 cell line screen, 48 h
Assay [1] relates to RXF 393 renal.
Assay [2] has as its system HCC-2998 colon.
The test system of assay [3] is IGROV1 ovarian.
The test system of assay [4] is CCRF-CEM leukemia.
The subject of assay [5] is SK-MEL-2 melanoma.
Assay [6] concerns M14 melanoma.
For assay [7], the system named is NCI-H226 lung.
The subject of assay [8] is TK-10 renal.
Assay [9] relates to HCT-15 colon.
For assay [10], the system named is UACC-257 melanoma.

As to `COC(C(=O)C(O)C(C)O)C1Cc2cc3cc(OC4CC(OC5CC(O)C(O)C(C)O5)C(O)C(C)O4)c(C)c(O)c3c(O)c2C(=O)C1OC1CC(OC2CC(O)C(OC3CC(C)(O)C(O)C(C)O3)C(C)O2)C(O)C(C)O1` (stereo not given), the GI50 in assay [1] is 11.2 ng/mL and 0.246 ng/mL; in assay [2], 11.7 ng/mL and 0.297 ng/mL; in assay [3], 11.2 ng/mL and 2.31 ng/mL; in [4], 11.2 ng/mL and 0.853 ng/mL; in assay [5] it was 11.2 ng/mL and 1.5 ng/mL; in assay [6], 0.047 µg/mL and 0.0293 µg/mL. For the same molecule, the GI50 in assay [7] is 11.2 ng/mL and 0.196 ng/mL; in assay [8], 0.0252 µg/mL and 0.295 µg/mL; in assay [9], 0.244 µg/mL and 0.00299 µg/mL; in assay [10] it was 12.2 ng/mL and 1.15 ng/mL. The TGI was 2.65 µg/mL and 1.5 µg/mL in [9]; 0.0598 µg/mL and 0.027 µg/mL in assay [10].

As for `Cc1ccc(NC(=O)CC/C(CC(=O)C(C)(C)C)=N/NC(=O)C[N+](C)(C)C)cc1C`, the TGI in assay [1], in assay [2], in assay [3], in assay [4], in assay [5] and in assay [6] was greater than 100 µM each time. Also, the TGI in assay [7], in [8], in assay [9] and in assay [10] was greater than 100 µM each time.

As to `O=C(N=Nc1c(O)[nH]c2ccccc12)c1oc2ccccc2c1CN1CCN(c2ccccc2)CC1`, the GI50 in [1] was 1010 nM; in [2], 6.83 µM; in assay [3], 2.41 µM; in assay [4], 1680 nM; in assay [5] it was 5460 nM; in [6], 2070 nM. Further, the GI50 is 6.68 µM in assay [7], 1.05 µM in assay [8], 1640 nM in assay [9] and 4030 nM in assay [10]. In addition, the TGI in [1] is 3.17 µM; in [2], 32 µM; in assay [3], 11.2 µM; in [4], greater than 50 µM; in assay [5], 15.8 µM; in assay [6], 8.83 µM. Moreover, the TGI stood at 20.5 µM in assay [7], 3.58 µM in assay [8], 10.2 µM in assay [9] and 28.3 µM in assay [10].

As to `COc1ccc(-c2nc(Nc3ccc(-c4nc5ccccc5[nH]4)cc3)nc(N3CCOCC3)n2)cc1`, the GI50 in [1] is 459 nM; in [2], 3.09 µM; in [4] it was 3110 nM; in [5], 2330 nM; in assay [6], 1940 nM; in assay [7], 3.32 µM. Moreover, the figures for the GI50 in assay [8] and in assay [9] were 2.91 µM and 1670 nM, respectively. The TGI is 2.51 µM in assay [1]; greater than 100 µM in assay [2]; greater than 100 µM in assay [4]; 5.49 µM in assay [5]; 4.03 µM in assay [6]; 8.6 µM in [7]. Further, the figures for the TGI in assay [8] and in assay [9] were 8.54 µM and 4.78 µM, respectively.

For the molecule `COC(=O)C1=Cc2cc(OC)c(OC)cc2[C@H](c2ccc(OC)c(OC)c2)C1C(=O)OC` (stereo not given in full), the TGI in [1], in assay [2], in assay [3], in assay [4], in assay [6] and in assay [7] was greater than 100 µM in each case. The TGI in [8], in assay [9] and in [10] was greater than 100 µM in each case.

For the molecule `CCOC(=O)c1ccc2c(c1)nc(/C=C/c1ccc(Cl)cc1)n2-c1cc(C(C)(C)C)[nH]n1`, the GI50 is 2210 nM in [1]; greater than 100 µM in assay [2]; 5.09 µM in [3]; 7540 nM in assay [4]; 20900 nM in assay [6]; 3.63 µM in assay [7]. The figures for the GI50 in [8], in assay [9] and in assay [10] were 3.11 µM, 4260 nM and 6840 nM, respectively. Further, the TGI was 6.48 µM in assay [1]; greater than 100 µM in assay [2]; 33.8 µM in assay [3]; greater than 100 µM in assay [4]; greater than 100 µM in assay [6]; 27.2 µM in [7]. Moreover, the TGI was 7.2 µM in [8], greater than 100 µM in assay [9] and greater than 100 µM in [10].

For the molecule `COC(=O)c1ccc2c(c1)C(=O)c1c-2n(C)c(=O)c2cc(OC)c(OC)cc12`, the GI50 in [1] was 123 nM; in [2], greater than 50 µM; in [3], 11.8 µM; in assay [4] it was greater than 50000 nM; in assay [5], 37800 nM; in assay [6], greater than 50000 nM. Further, the GI50 is greater than 50 µM in assay [7], 32.1 µM in assay [8] and greater than 50000 nM in [9]. The TGI in assay [1] is 26.1 µM; in [2], greater than 50 µM; in assay [3], greater than 50 µM; in assay [4] it was greater than 50 µM; in assay [5] it was greater than 50 µM; in assay [6], greater than 50 µM. Also, the TGI in assay [7], in assay [8] and in [9] was greater than 50 µM in each case.

As for `O=c1c2cccc(F)c2sc2c(N3CCNCC3)nc3ccccc3c12`, the GI50 in [1] is 1310 nM; in [2], 1.48 µM; in assay [3] it was 1.22 µM; in [4], 1330 nM; in assay [5], 1760 nM; in assay [6], 1710 nM. The GI50 in assay [7] is 1.65 µM; in assay [9], 1290 nM; in assay [10], 1930 nM. The TGI in assay [1] was found to be 2.62 µM; in assay [2] it was 3.13 µM; in assay [3] it was 2.55 µM; in assay [4] it was 3.18 µM; in assay [5], 3.46 µM; in [6], 3.17 µM. Moreover, the values for the TGI in assay [7], in assay [9] and in assay [10] were 3.4 µM, 2.71 µM and 3.94 µM, respectively.

Consider `NCCCn1c2c(c3ccc([N+](=O)[O-])cc3c1=O)C(=O)c1cc(-c3ccccc3)ccc1-2`, for which the GI50 in assay [1] is 1360 nM; in assay [2], 0.31 µM; in [4], 238 nM; in [5], 438 nM; in assay [6], 1120 nM; in assay [9], 187 nM. For the same molecule, the GI50 in assay [10] was 1850 nM. Besides, the TGI turned out to be 2.79 µM in assay [1]; 1.27 µM in [2]; 0.712 µM in [4]; 1.27 µM in assay [5]; 2.37 µM in [6]; 0.365 µM in [9]. In assay [10], this molecule showed a TGI of 3.46 µM.
